Data taken from patent US20230391765A1, “HETEROBIFUNCTIONAL COMPOUNDS AS DEGRADERS OF ENL” (ICAHN SCHOOL OF MEDICINE AT MOUNT SINAI, priority 2020, published 2023).

What was measured:
Assay type in all cases: cell-based
ENL [1] = molecular target: T1, ENL (Homo sapiens, UniProt Q03111); test: Western blot of ENL protein levels in MV4; 11 cells
T1 construct: Cells were lysed and expression of endogenous ENL was assessed by Western blot analysis; host or cells: MV4;11
T1 sequence (Q03111 1-559): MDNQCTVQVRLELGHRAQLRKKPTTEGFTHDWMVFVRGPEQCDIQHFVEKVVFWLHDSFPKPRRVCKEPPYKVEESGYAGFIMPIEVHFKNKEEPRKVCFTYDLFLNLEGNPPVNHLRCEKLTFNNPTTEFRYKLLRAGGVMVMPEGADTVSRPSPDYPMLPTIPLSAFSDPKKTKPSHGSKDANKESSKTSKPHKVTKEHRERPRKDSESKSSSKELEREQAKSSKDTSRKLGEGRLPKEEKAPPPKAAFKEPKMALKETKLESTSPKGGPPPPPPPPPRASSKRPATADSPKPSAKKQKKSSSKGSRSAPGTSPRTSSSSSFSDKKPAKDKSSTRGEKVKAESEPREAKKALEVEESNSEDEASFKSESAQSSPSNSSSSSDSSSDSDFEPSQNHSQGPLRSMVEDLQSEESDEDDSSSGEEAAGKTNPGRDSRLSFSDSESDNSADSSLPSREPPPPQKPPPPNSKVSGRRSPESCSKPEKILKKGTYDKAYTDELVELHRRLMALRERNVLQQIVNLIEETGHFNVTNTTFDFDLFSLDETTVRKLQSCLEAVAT
Protocol: MV4; 11 cells were treated with DMSO or the indicated compounds (the same panel of ENL degraders as shown in FIG. 4) at 1 μM and 10 μM for 24 h. Cells were lysed and expression of ENL was assessed by Western blot analysis.
DMSO treated cells were used as control.
MV4; 11 cells were treated with LQ076-122, or LQ081-107 at 0.3, 1, 3, 10, and 30 μM for 24 h. DMSO treated cells were used as control. Cells were lysed and expression of ENL and GAS41 was assessed by Western analysis.
MV4; 11 cells were treated with DMSO or the indicated compounds at 1 μM and 10 μM for 6 h. Cells were lysed and expression of endogenous ENL was assessed by Western blot analysis.
Cells were treated with 1 μM of ENL degrader with or without 1 μM proteasome inhibitor MG132 for 6 h.
(§1) ENL degraders were dissolved in DMSO. DMSO with no degraders was used as the control. 1×10^6 leukemia cells were seeded in 5 mL medium. For prescreening of compounds, each test compound was added to the medium at 1 μM and 10 μM. Cells were collected after 24 h treatment. For the concentration-dependent treatment, candidate compounds were added to the medium at a series of concentration as indicated in figures. Cells were collected after 24 h treatment. For the time-course treatment, candidate compounds were added to the medium at a final concentration of 4 μM (MV4; 11 cells) or 8 μM (MOLM13 cells). Cells were collected at the indicated timepoints (in hours: 12, 16, 20, 24 and 36 h).
(§2) After ENL degrader treatment, cells were collected, lysed, and total cell lysates were used for Western blot. The following primary antibodies were used: ENL (Cell Signaling Technology), GAS41 (Santa Cruz), GAPDH (Santa Cruz), β-actin (Sigma). Blots were detected using HRP-conjugated secondary antibodies.

ENL target genes = test: RT-qPCR of ENL target genes in MOLM13 cells
Protocol: MOLM13 cells were treated with LQ076-122 (FIG. 14A) and LQ081-108 (FIG. 14B) at 0.5, 1, 2, 4, and 8 μM for 24 h. […] RT-qPCR analysis was performed to detect the mRNA levels of selected ENL target genes.
Total RNA was extracted using the RNeasy Plus kit (Qiagen) and reverse-transcribed using the iScript cDNA Synthesis kit (Bio-Rad). RT-qPCR was performed using the Power SYBR Green PCR Master Mix (Applied Biosystems) on the CFX96 Real-Time PCR system (Bio-Rad). Gene expressions were calculated following normalization to 18s rRNA amounts using the comparative cycle threshold (Ct) method.

[2] = test system: ENL-independent Jurkat cells; test: Cell viability (CellTiter-Glo), Jurkat cells
Protocol: (§3) MV4; 11 (FIG. 13A), MOLM13 (FIG. 13B) and Jurkat (FIG. 13C) cells were seeded at 2×10^5 cells/mL density and treated with DMSO or indicated compounds 0.5, 1, 2 and 4 μM for 72 h. Cell viability was measured using CellTiter-Glo reagent (Promega) and relative cell viability was calculated by normalization to DMSO samples.
(§4) ENL-dependent MV4; 11 and ENL-independent Jurkat cells were seeded at 2×10^5 cells/mL density and treated with DMSO or indicated compounds at 10 nM, 100 nM, 1 μM and 10 μM for 3 days (A) or 6 days (B). Cell viability was measured using CellTiter-Glo reagent (Promega) and relative cell viability was calculated by normalization to DMSO samples.

[3] = test system: ENL-dependent MOLM13 leukemia cells; test: Cell viability (CellTiter-Glo), MOLM13 cells; settings: MOLM13 cells, 0.5, 1, 2 and 4 μM for 72 h
Protocol: as §3
(§5) MV4; 11 or MOLM13 cells were seeded at 0.2×10^6 cells/mL density. Cells were treated with DMSO or ENL degraders at indicated concentrations. Each treatment was done in triplicates. After 72 h treatment, 100 μL of cell suspension from each treatment was mixed with 25 μL of CellTiter-Glo reagent (Promega) and incubated for 10 min before the luminescence signals were detected on a plate reader.

[4] = test system: ENL-dependent MV4; 11 cells; test: Cell viability (CellTiter-Glo), MV4; 11 cells
Protocol: as §3
ENL-dependent MV4; 11 cells were seeded at 2×10^5 cells/mL density and treated with DMSO or the indicated compounds at 0, 1.25, 2.5, 5 and 10 μM for 72 h. Cell viability was measured using CellTiter-Glo reagent (Promega) and relative cell viability was calculated by normalization to DMSO samples.
as §4, §5

ENL [5] = molecular target: T1, ENL; test: Western blot of ENL protein levels in MOLM13 cells
Protocol: MOLM13 cells were treated with LQ076-122 or LQ081-108 at 0, 0.25, 0.5, 1, 1.5, 2, 2.5, 3, 4 and 8 μM for 24 h.
MOLM13 cells were treated with DMSO or 8 μM of LQ076-122 for 12, 16, 20, 24 and 36 h.
MV4; 11, MOLM13 and Jurkat cells were treated with LQ108-69, LQ108-71, LQ108-72, LQ126-62 and LQ126-63 at 0, 1 nM, 10 nM, 100 nM, 1 μM, and 10 μM doses for 6 h. DMSO was used as negative control.
as §1, §2

ENL [6] = molecular target: T1, ENL; test: Western blot of ENL protein levels in Jurkat cells
Description: […] DMSO was used as negative control.
as §2

[7] = 11 cells, 0.3, 1, 3 and 10 μM for 12 and 24 h
[8] = Jurkat cells, 0.5, 1, 2 and 4 μM for 72 h
[9] = 11 cells, 0.5, 1, 2 and 4 μM for 72 h

Row | Structure (SMILES) | reduction of ENL protein levels (ENL [1]; [7]) | suppression of cell growth (relative cell viability) [2, 8] | suppression of cell growth (relative cell viability) [3] | suppression of cell growth (relative cell viability) [4, 9] | further results
1 | Cc1ncsc1-c1ccc([C@H](C)NC(=O)[C@H]2C[C@H](O)CN2C(=O)[C@@H](NC(=O)CCCCCCCCCCNC(=O)c2ccc(C(=O)Nc3ccc4[nH]c(CN5CCC[C@@H]5C)nc4c3)cc2)C(C)(C)C)cc1 [LQ081-106] | did not affect ENL protein levels | did not significantly affect cell growth | did not significantly affect cell growth | did not significantly affect cell growth | ENL target gene expression (mRNA levels) (ENL target genes; MOLM13 cells, 8 μM for 24 h): did not dramatically affect these genes
2 | Cc1ncsc1-c1ccc(CNC(=O)[C@H]2C[C@H](O)CN2C(=O)[C@@H](NC(=O)CCCCCCCCCCNC(=O)c2ccc(C(=O)Nc3ccc4[nH]c(CN5CCC[C@@H]5C)nc4c3)cc2)C(C)(C)C)cc1 [LQ081-107] | did not affect ENL protein levels | – | – | – | ENL target gene expression (mRNA levels) (ENL target genes; MOLM13 cells, 8 μM for 24 h): did not dramatically affect these genes
3 | Cc1ncsc1-c1ccc([C@H](C)NC(=O)[C@@H]2C[C@@H](O)CN2C(=O)[C@@H](NC(=O)CCCCCCCCCCNC(=O)c2ccc(C(=O)Nc3ccc4[nH]c(CN5CCC[C@@H]5C)nc4c3)cc2)C(C)(C)C)cc1 [LQ081-108, N^1-(11-(((S)-1-((2S,4R)-4-hydroxy-2-(((S)-1-(4-(4-methylthiazol-5-yl)phenyl)ethyl)carbamoyl)pyrrolidin-1-yl)-3,3-dimethyl-1-oxobutan-2-yl)amino)-11-oxoundecyl)-N^4-(2-(((S)-2-methylpyrrolidin-1-yl)methyl)-1H-benzo[d]imidazol-5-yl)terephthalamide] | reduced ENL protein levels in a concentration- and time-dependent manner | – | selectively suppressed cell growth | selectively suppressed cell growth | reduction of ENL protein levels (ENL [1]; 11 cells, 0-8 μM for 24 h): reduced ENL protein levels in a concentration-dependent manner; reduction of ENL protein levels (ENL [1]; 11 cells, 10 μM, 24 h): effective in reducing ENL protein levels; reduction of ENL protein levels (ENL [5]; 0-8 μM for 24 h): reduced ENL protein levels in a concentration-dependent manner; ENL target gene expression (mRNA levels) (ENL target genes; MOLM13 cells, 0.5, 1, 2, 4 and 8 μM for 24 h): reduced ENL target gene expression in a concentration-dependent manner
4 | Cc1ncsc1-c1ccc([C@H](C)NC(=O)[C@H]2C[C@H](O)CN2C(=O)[C@@H](NC(=O)CCCCCCCCCCCNC(=O)c2ccc(C(=O)Nc3ccc4[nH]c(CN5CCC[C@@H]5C)nc4c3)cc2)C(C)(C)C)cc1 [LQ081-158] | – | did not significantly affect cell growth | did not significantly affect cell growth | did not significantly affect cell growth | –
5 | Cc1ncsc1-c1ccc([C@H](C)NC(=O)[C@@H]2C[C@@H](OCc3ccccc3)CN2C(=O)[C@@H](NC(=O)CCCCCCCCCCNC(=O)c2ccc(C(=O)Nc3ccc4[nH]c(CN5CCC[C@@H]5C)nc4c3)cc2)C(C)(C)C)cc1 [LQ108-141] | – | did not significantly affect cell growth | did not significantly affect cell growth | did not significantly affect cell growth | –
6 | Cc1ncsc1-c1ccc([C@H](C)NC(=O)C2C[C@@H](OCc3ccccc3)CN2C(=O)[C@@H](NC(=O)CCCCCCCCCCCNC(=O)c2ccc(C(=O)Nc3ccc4[nH]c(CN5CCC[C@@H]5C)nc4c3)cc2)C(C)(C)C)cc1 (stereo partly drawn) [LQ108-142] | – | did not significantly affect cell growth | did not significantly affect cell growth | did not significantly affect cell growth | –
7 | Cc1ncsc1-c1ccc(CNC(=O)[C@@H]2C[C@@H](O)CN2C(=O)[C@@H](NC(=O)CCCCCCCCCCNC(=O)c2ccc3c(c2)[C@H](NC(=O)c2cc(-c4ccc(C(=O)N(C)C)c(O)c4)on2)CC3)C(C)(C)C)cc1 [LQ126-63, 5-(4-(dimethylcarbamoyl)-3-hydroxyphenyl)-N—((R)-6-((11-(((S)-1-((2S,4R)-4-hydroxy-2-((4-(4-methylthiazol-5-yl)benzyl)carbamoyl)pyrrolidin-1-yl)-3,3-dimethyl-1-oxobutan-2-yl)amino)-11-oxoundecyl)carbamoyl)-2,3-dihydro-1H-inden-1-yl)isoxazole-3-carboxamide] | – | – | – | – | reduction of ENL protein levels (ENL [1]; 11 cells, 1 nM to 10 μM for 6 h): reduced ENL protein levels in a concentration-dependent manner; effect of proteasome inhibitor MG132 on the ENL degradation induced by the degrader (ENL [1]; 11 cells, 1 μM degrader with or without 1 μM MG132 for 6 h): partially blocks the ENL degradation; ENL protein level after long treatment (ENL [1]; 11 cells, 1 μM for 48 and 72 h): maintained the ENL protein at low levels; reduction of ENL protein levels (ENL [6]; 1 nM to 10 μM for 6 h): reduced ENL protein levels in a concentration-dependent manner; ENL protein level after long treatment (ENL [6]; 1 μM for 48 and 72 h): maintained the ENL protein at low levels; reduction of ENL protein levels (ENL [5]; 1 nM to 10 μM for 6 h): reduced ENL protein levels in a concentration-dependent manner; ENL protein level after long treatment (ENL [5]; 1 μM for 48 and 72 h): maintained the ENL protein at low levels; suppression of cell growth (relative cell viability) ([2]; Jurkat cells, 10 nM to 10 μM, 3 days and 6 days): did not affect the growth of ENL-independent Jurkat cells; suppression of cell growth (relative cell viability) ([4]; 11 cells, 100 nM dose, 3 days and 6 days): strongly suppressed MV4; 11 cell growth; suppression of cell growth (relative cell viability) ([4]; 11 cells, 1.25, 2.5, 5 and 10 μM for 72 h): significantly suppressed MV4; 11 cell growth at low micromolar concentration
